Measured values as given in patent EP2777394A1, “Agricultural adjuvant composition and process for its obtainment” (SC Teso Spec SRL, priority 2012, dated 2014).

How the values were obtained:
Format in all cases: in vivo
[1] = system: leafminers flies, Liriomyza trifolii (Burgess); assay: Field test of spinosad with or without adjuvant A3 against leafminer larvae on muskmelon; details: per sampled leaf, 3 days after treatment, acetamipirid 0.025%, spinosad 0.05%, adjuvant A3 0.4%
Method: Example 10. The effect of adjuvant A3, obtained according to Example 5, was tested to determine whether its addition improve the activity of spinosad against leafminers flies, Liriomyza trifolii (Burgess). Spinosad is a metabolite produced by biosynthetic process by the actinomycetes Saccharopolyspora spinosa, and provides excellent crop protection with a relatively low toxicity to non-target organisms, including many beneficial insects. For that reason spinosad is accepted on organic farming systems. […] Addition of the spraying adjuvant increase the efficacy of spinosad based insecticide in controlling leafminers larvae (Larson, 1997, Arthrop. Manag. Test. 22:415-416).
The experiment was done on the Fundulea experimental field, which characteristics were already presented in Example 6. The muskmelon (Cucumis melo L., cv. Charentais) experimental plots were established on 19th of April, 2012, using 25 days old transplants, on a density equivalent to 12.000 transplants per ha. The experimental filed where experiment was plotted was previously cultivated with corn and was fertilized with 200 kg/ha equivalent complex fertilizer NPK 15:15:15 (Azomure ? ), on beginning of March. Herbicidation was done by application on the whole surface of a dose of 4 l/ha Stomp 330 EC, sprayed in a mixture with 450 l water per ha, 10 days before transplantation, and incorporated in soil with a by harrowing with a disc harrow.
Plots of 20 m^2 were made with edges of two untreated rows, in random blocks, with 4 repetitions on each treatment. Application of treatments were done with a backpack sprayer SG10 (Stihl AG, Waiblingen, Germany), by spraying from 40 cm, with a spraying pressure set-up to 275 kPa, using a nozzle with flat jet and low drift (TeeJett® flat-fan TT11002 model, Spraying Systems Co., Wheaton, IL, USA). Were applied […], one in the phenophase of 3...4 leaves and in the phenophase 6...8 leaves, as a second treatment. In phenophase 3...4 leaves, one day after the treatment with insecticide, was applied also a treatment with Previcur 607 SL (propamocarb 607 g/l) for controlling the downy mildew (Pseudoperonospora cubensis), on the whole area of the experiment. The experimental treatments were: • V1 - control, untreated for Liriomyza trifolii; • V2 - acetamipirid 0.025% (Mospilan 20 SG, 200 g/kg acetamipirid, Nippon Soda Company, Tokio, Japonia), equivalent 0.1 kg/ha in a spraying norm of 400 l/ha, considered as standard for treatment of leafminers flies larvae because is a systemic insecticide; • V3 - spinosad 0.05% (Laser 240 SC, 240 g/l spinosad, Dow AgroSciences, Indianapolis, USA), equivalent 0.2 kg/ha at a spraying norm of 400 l/ha; • V4 - spinosad 0.05% (Laser 240 SC, 240 g/l spinosad, Dow AgroSciences, Indianapolis, USA), equivalent 0.2 kg/ha at a spraying norm of 400 l/ha + adjuvant A3, according to Example 5, 0.4%, equiv. to 1.6 kg at a spraying norm of 400 l/ha.
The impact of each treatment on leafminer larvae mortality was estimated by counting the number of live and dead / paralyzed larvae, and also of the empty and total mines per each sampled leaf. A total of 10 leaves per experimental plot were collected at 3 days after treatment and examined in the laboratory for presence of mines in leaves and larvae status in the mines. The data were processed by analysis of variance (Statistica 10, StatSoft). Tab. 11.The influence of spray adjuvant A3 on the efficacy of spinosad in controlling the leafminers larvae on muskmelon.

[2] = system: winter wheat (Triticum aestivum L.), cultivar Capo; assay: Selenium biofortification of wheat grains by foliar sodium selenite, with or without adjuvant A1.2 (field experiment); details: 300 l/ha; for Selenium content in the wheat grains (mcg/kg): applied at GS31; for Yield (kg/ha): yield with 86% dry matter
Description: Example 7. On the experimental field from Fundulea was done also an experiment in order to establish the effect of adjuvant A1.2 on the biofortification treatment with sodium selenite applied as foliar fertilizers on wheat. Se (IV) from the sodium selenite is a selenium species which are not translocated from the radicular system into the foliar one through xylem (Zhu et al., 2009, Trends Plant Sci. 14:436-442), thus an eventually biofortification of the wheat yield resulted from the treatment with selenite is the result of the selenite absorbed through cuticle and not of that absorbed by radicular system after leakage on soil. The soil on which was done the experiment has the characteristics presented in the above tab. 6, and the total selenium content (HF + HNO3 + HCl) is 0.197 mg/kg.
The experiment was done of experimental plots of 25 m^2, with winter wheat (Triticum aestivum L.), cultivar Capo, cultivated in similar conditions with those already presented in Example 6 regarding the agrotechnics, base fertilization before seeding and crop protection. The experiment was done in random blocks in a Latin square, 4 treatments in 4 repetitions. The 4 treatments were: • V1 - control, treated with water, • V2 - sprayed with a solution of sodium selenite pentahidrate, Na2SeO3.5 H2O, 0.0111%, equiv. 10 g Se/ha for a spraying norm of 300 l/ha; • V3 - sprayed with a solution of sodium selenite pentahidrate, Na2SeO3.5 H2O, 0.0222%, equiv. 20 g Se/ha for a spraying norm of 300 l/ha; • V4 - sprayed with a solution of sodium selenite pentahidrate, Na2SeO3.5 H2O, 0.0111 %, equiv. 10 g Se/ha for a spraying norm of 300 l/ha and 0.5% spraying adjuvant A1.2 Ex.2, equivalent to a dose of 1.5 kg/ha.
Application of the solutions was done with a backpack sprayer SG10 (Stihl AG, Waiblingen, Germany), by spraying from 40 cm, with a spraying pressure set-up to 275 kPa, using a nozzle with flat jet and low drift (TeeJett® flat-fan TT11002 model, Spraying Systems Co., Wheaton, IL, USA). The treatments were applied during the growth stages GS31 (5th April 2012). On the end of the vegetation season each repetition was separately harvested, the realized production being expressed in kg/ha with 86% dry matter. In the wheat grain selenium was determined, by atomic absorption spectrophotometry with hydride generation (Tinggi et al., 1992, J. Food Comp. Anal. 5, 269-280). The date were analyzed by application of the linear general model, to determine the average values and the significance differences at a probability level of 5% (Statistica 10, StatSoft, Tulsa, OK, US). Tab. 8. Influence of the adjuvant A1.2 done according to the invention on the biofortification treatment of wheat grains (cv. Capo) with selenium.

[3] = system: Tomato plants (Lycopersicum esculentum cv. Cristal F1); assay: Protection of tomato plants against water stress by foliar glycine-betaine, with or without adjuvant A2 (greenhouse)
Method: Example 9. It was tested the efficacy of adjuvant A2, obtained according to Ex.4 on the performances of glycine-betaine, compound with an osmoprotectant action, regarding the protection of tomato plants against water stress. Glycine - betaine presents a molecule with quaternary nitrogen, strongly polar, with a reduced penetrability on the hydrophobic plant cuticle.
Tomato plants (Lycopersicum esculentum cv. Cristal F1), transplants of 60 days, were re-potted in vegetation pots of 25 cm dia. and 50 cm height, on which was introduced a synthetic grown substrate enriched with nutrients for the first week of plant growth (Canna Terra Professional Plus, Canna International BV). The vegetation pots were maintained in greenhouse conditions, at 22±2°C during the day and 17±2°C during the night, with a photoperiod of 12 hours, supplemented with light with an intensity of 160 µE/m^2/s, from a metal halide lamp, when the light intensity was below 500 µE/m^2/s. […] The grown substrate contained initial nutrient reserves, thus the plants were fertilized only one time, at 28 days after transplantation, by the application of 100 ml of nutritive solution 1 g/l of fertilizer 20 - 8 - 20 (N-P2O5-K2O, Eurofertil, TimacAgro Romania). The experiment was organized in a random bloc with 4 repetitions for each treatment, each repetition including 5 plants. It was used purified glycine-betaine (99%, Sigma Aldrich, St. Louis, Mo, US). The experimental treatments included also controls, sprayed only with water, water stress control and unstressed control. These experimental treatments were: • V1 - control unstressed, sprayed with water; 2 treatments x 2 ml per plant, equivalent 100 l/ha; • V2 - control water stressed, sprayed with water; 2 treatments x 2 ml per plant, equivalent 100 l/ha; • V3 - water stressed, sprayed with glycine-betaine; 2 treatments x 2 ml 5 mM per plant, equivalent 58,5 g in 100l/ha; […]; […]; • V5 - water stressed, sprayed with glycine -betaine and adjuvant, 2 treatments x 2 ml solution 5 mM betaine + 1% adjuvant A2 per plant, equivalent 58,5 g betaine and 1 kg adjuvant A2 in 100l/ha.
Treatments were applied in the 2nd and 29th day after transplantation, by spraying each plant with the help of a glass atomizer with metal top and plastisol bulb (model 15-RD, DeVilbiss Healthcare, Somerset, PA, USA). The unstressed control was irrigated once every five day at 100% field capacity, and the water stressed plants were irrigated each two weeks at 100% field capacity. […] The data were processed by analysis of variance (Statistica 10, StatSoft).

[4] = system: common cocklebur (Xanthium strumarium); assay: Greenhouse test of adjuvants on nicosulfuron efficacy, common cocklebur; details: nicosulfuron 50 g/ha, without adjuvant, Trend 90 0,1% or soybean oil methylate 1%
Method: (§1) Example 8. The basic adjuvant A1.3 was tested on greenhouse conditions in order to verify its effect on the performance increase of nicosulfuron, herbicide representative for the category of weakly acid herbicides from the sulfonylurea class, which solubility in water is increased on high pH. The used test plants were common cocklebur (Xanthium strumarium), dicotyledonous weed, and large crabgrass (Digitaria sanguinalis), monocotyledonous weed. The common cocklebur was sown on approx. 2 cm deep, in plastic pots of 15 cm diameter, and after emergence was thinned to only 2 plants. The large crabgrass was planted in the same type of plastic pots, at 1 cm deep, and after emergence was thinned to a cluster of around 15 plants. The pots contain a synthetic grown substrate enriched with nutrients for the first week of plant growth ([…] Professional Plus, Canna International BV, Oosterhout, Netherlands), and consequently were not applied fertilizers. […] At three weeks after the treatment it was determined the fresh weight of plants on each repetition by weighting and was estimated the phytotoxicity, using a scale from 0% (without visible symptoms) to 100% (plant completely destroyed). […]

[5] = system: large crabgrass (Digitaria sanguinalis); assay: Greenhouse test of adjuvants on nicosulfuron efficacy, large crabgrass; details: nicosulfuron 50 g/ha, without adjuvant, Trend 90 0,1% or soybean oil methylate 1%
Method: as §1

[6] = V3 water stressed, 2x 5 mM equiv. 58,5 g in 100 l/ha
[7] = V3 water stressed, 2x 5 mM equiv. 58,5 g in 100 l/ha, 8 weeks after transplantation
[8] = fresh weight three weeks after treatment
[9] = three weeks after treatment, scale 0-100%

C/C(=N\C#N)N(C)Cc1ccc(Cl)nc1 [Acetamipirid, acetamipirid]
Dead larvae ([1]; First treatment): 0.1c
Empty mines ([1]; First treatment): 0c
Mines total ([1]; First treatment): 0.4a
Mines with live larvae ([1]; First treatment): 0.1c
Dead larvae ([1]; Second treatment): 0.3c
Empty mines ([1]; Second treatment): 0b
Mines total ([1]; Second treatment): 0.2a
Mines with live larvae ([1]; Second treatment): 0b

O=[Se](O)O [Na2SeO3.5 H2O, sodium selenite pentahidrate]
Selenium content in the wheat grains (mcg/kg) ([2]; equiv. 10 g Se/ha): 105b mcg/kg
Yield (kg/ha) ([2]; equiv. 10 g Se/ha): 4958a kg/ha
Selenium content in the wheat grains (mcg/kg) ([2]; equiv. 20 g Se/ha): 142a mcg/kg
Yield (kg/ha) ([2]; equiv. 20 g Se/ha): 4549b kg/ha

C[N+](C)(C)CC(=O)O [glycine-betaine]
Leaves surfaces (mm^2) [3, 6]: 587.58±4.92ab mm^2
Number of Leaves [3, 6]: 28.00±2.1b
Plant height (cm) [3, 7]: 47.30±3.42c cm
Root length (cm) [3, 7]: 45.50±2.39b cm
Average yield** (g ripened fruits / plant) ([3]; V3 water stressed, 2x 5 mM equiv. 58,5 g in 100 l/ha, production for 30 days cycle of flowering - fructification): 223±28.2b g ripened fruits / plant
Leaves surfaces (mm^2) ([3]; V4 water stressed, 2x 5 mM equiv. 117 g in 100 l/ha): 663.16±5.84a mm^2
Root length (cm) ([3]; V4 water stressed, 2x 5 mM equiv. 117 g in 100 l/ha, 8 weeks after transplantation): 54.80±1.88b cm

COc1cc(OC)nc(NC(=O)NS(=O)(=O)c2ncccc2C(=O)N(C)C)n1 [nicosulfuron]
Mass reduction (% control) [4, 8]: 59c % control
Phytotoxicity (%) [4, 9]: 33c %
Mass reduction (% control) [5, 8]: 52c % control
Phytotoxicity (%) [5, 9]: 40c %

spinosad
Dead larvae ([1]; First treatment): 1.8b
Empty mines ([1]; First treatment): 3.3b
Mines total ([1]; First treatment): 8.2b
Mines with live larvae ([1]; First treatment): 1.2b
Dead larvae ([1]; Second treatment): 3.1a
Empty mines ([1]; Second treatment): 2.7a
Mines total ([1]; Second treatment): 6.8b
Mines with live larvae ([1]; Second treatment): 0.3a
